Assays:
HT-p21-9 cells [1] = assay: Protein content per cell (cellular hypertrophy), IPTG-treated HT-p21-9 cells; format: cell-based, human; details: days 2-5
Procedure: (§1) FIG. 3. […] Immunoblot. […] Immunoblot was performed as described in the methods for Example 1 below. b. Immunoblot. […] Immunoblot was performed as described in Methods. c. […] After 3 days, cells were washed and incubated in fresh medium w/o drugs for an additional 7 days. Cells were counted and are shown as percent of IPTG alone. d. […] Cells were treated with either IPTG alone (black bars) or IPTG plus rapamycin (white bars) or plus nutlin-3a (grey bars). On days 2, 3, 4, and 5 cells were lysed and protein content per well was measured. […] Cells were labeled with [^35S]methionine/cysteine as described in Methods for Example 1.

HT-p21-9 cells [2] = details: HT-p21-9 cells; Huang et al. 2009; cited from earlier work
HT-p21-9 cells [3] = assay: Metabolic labeling, [35S]methionine/cysteine incorporation (protein synthesis); format: cell-based, human; details: IPTG-treated cells, 24 h treatment
Procedure: as §1
FIG. 8. Effects of IPTG and 500 nM rapamycin on protein synthesis ([^35S]methionine/cysteine incorporation). Cells were treated as indicated for 24 hrs and then labeled with [^35S]methionine/cysteine as described in Methods for Example 1.
Metabolic labeling. HT-p21-9 cells were seeded at 25,000 cells/well in 12-well plates. On the next day, cells were treated with drugs. After 24 h, cells were labeled with 30 μCi [^35S]methionine/cysteine (Amersham) per ml of Met/Cys-free Dulbecco's modified Eagle's medium (Invitrogen) for 1 h at 37° C. Cells were washed with PBS and lysed in 1% SDS, with 0.5% BSA. […] Filters were air-dried and counted using liquid scintillation counter.

mTOR pathway [4] = assay: Immunoblot for p53, p-S6, p-S6K in WI-38-tert fibroblasts; format: cell-based, human
Procedure: FIG. 4. […] HT-p21-a cells were treated with IPTG and infected with Ad-p53. After 3 days, cells were photographed (original magnification ×200): Upper panel. Under blue light to visualize cells expressing p53 (green cells). Lower panel. Under visible light to visualize all cells. Red arrows indicate cells lacking p53 expression. All of these cells show large, flat cell morphology. Green arrows indicate cells expressing p53. b-d. […] After 1 day, cells were lysed and immunoblot was performed as described in Methods for Example 1. c. […] Cells were then stained for beta-Gal activity and microphotographed. Scale bar—50 μm.d. […] Cells were then trypsinized and counted. […] Results are shown as percent of control.
FIG. 12. […] Immunoblot for p53, p-S6, p-S6K, S6 and actin was performed as described in Methods for Example 1.
Immunoblot analysis. Proteins were separated on 4-15% gradient Tris-HCl gels (Bio-Rad). The following antibodies were used: mouse anti-actin from Santa Cruz Biotechnology, rabbit anti-phospho-S6 (Ser240/244) and (Ser235/236), mouse anti-S6, mouse anti-phospho-p70 S6 kinase (Thr389), mouse anti-p21 and anti-p53, rabbit anti-phospho-4E-BP1 (Thr37/46) from Cell Signaling; mouse anti-4E-BP1 from Invitrogen, mouse anti-p53 (Ab-6) from Calbiochem.

mTOR pathway [5] = assay: Immunoblot for mTOR pathway (p-S6, p-4E-BP1, cyclin D1) in HT-p21 cells; format: cell-based, human
Procedure: FIG. 3. […] Immunoblot. […] Immunoblot. […] Immunoblot was performed as described in Methods. c. […] After 3 days, cells were washed and incubated in fresh medium w/o drugs for an additional 7 days. […] On days 2, 3, 4, and 5 cells were lysed and protein content per well was measured.
Cell lines and reagents. […] WI-38-Tert, WI-38 are fibroblasts immortalized by telomerase. […] Cells were grown in high glucose DMEM with 10% FC2 serum. WI-38-tert cells were grown in low glucose DMEM with 10% FCS. Rapamycin was obtained from LC Laboratories (Woburn, Mass.). IPTG (final concentration of 50 μg/ml) and FC2 were obtained from Sigma-Aldrich (St. Louis, Mo.).

[6] = 200 μM H2O2 30 min, then 10 μM nutlin-3a, 1 day
[7] = IPTG plus 10 μM nutlin-3a, 24 hr

COc1ccc(C2=N[C@@H](c3ccc(Cl)cc3)[C@@H](c3ccc(Cl)cc3)N2C(=O)N2CCNC(=O)C2)c(OC(C)C)c1 [nutlin-3a]
protein content per cell (HT-p21-9 cells [1]): decreased the protein content per cell | cell cycle arrest on induction of p53 by nutlin-3a (HT-p21-9 cells [2]): reversible cell cycle arrest (quiescence) | protein synthesis ([35S]methionine/cysteine incorporation) (HT-p21-9 cells [3]): inhibited ^35S-methionine/cysteine incorporation in IPTG-treated HT-p21-9 cells in a dose-dependent manner | S6 phosphorylation in H2O2-treated WI-38-tert cells (mTOR pathway [4]; [6]): inhibited S6 phosphorylation | p53 level in H2O2-treated WI-38-tert cells (mTOR pathway [4]; [6]): induced p53 | S6K and S6 phosphorylation (mTOR pathway [4]; concentrations that induce p53, 24 hr): inhibited S6K and S6 phosphorylation | S6 phosphorylation (mTOR pathway [5]; [7]): inhibited S6 phosphorylation | phosphorylation of 4E-BP1 (mTOR pathway [5]; [7]): partially inhibited | cyclin D1 levels (mTOR pathway [5]; IPTG plus nutlin-3a): normalized elevated levels of cyclin D1 | mTOR pathway (mTOR pathway [5]; presence or absence of IPTG, 18 hr): inhibited the mTOR pathway both in the presence and absence of IPTG

From patent publication US20120283269A1, “Method and Compositions for Suppression of Aging” (HEALTH RESEARCH INC., priority 2009, published 2012)
